This note sets out measurements from article PMC5342483, “Nucleoside 5′-O-monophosphorothioates as modulators of the P2Y14 receptor and mast cell degranulation” (Oncotarget, 2016).

Type in all cases: cell-based
Experiment [1] concerns the target T1, P2Y14 receptor (Homo sapiens, UniProt Q15391).
T1 construct: gene P2RY14
T1 sequence (Q15391 1-338): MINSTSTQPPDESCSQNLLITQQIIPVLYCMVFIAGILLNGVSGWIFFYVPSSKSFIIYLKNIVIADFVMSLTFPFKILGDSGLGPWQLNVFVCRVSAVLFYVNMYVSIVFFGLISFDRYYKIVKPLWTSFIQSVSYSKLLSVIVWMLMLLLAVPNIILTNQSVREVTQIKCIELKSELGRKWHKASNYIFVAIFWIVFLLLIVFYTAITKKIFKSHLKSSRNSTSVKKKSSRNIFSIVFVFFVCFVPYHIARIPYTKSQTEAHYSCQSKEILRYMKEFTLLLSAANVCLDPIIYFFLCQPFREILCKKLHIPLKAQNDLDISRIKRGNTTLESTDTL
Kind of experiment: Agonist calcium mobilization assay (Fluo-8) in HEK293T Gαqi5 cells stably expressing human P2Y14R. Particulars: HEK-293T; read-out: CONCENTRATION / 100 μM. A general note: Calcium flux is commonly read through the fluorescence of an indicator in the cells.

Experiment [2] deals with T1, P2Y14 receptor. The description is as above. Particulars: HEK-293T; read-out: CONCENTRATION / 1 μM.
Experiment [3] concerns the target T1, P2Y14 receptor. Kind of experiment: Antagonist calcium mobilization assay (Fluo-8) in HEK293T Gαqi5 cells stably expressing human P2Y14R; residual response to UDPG (EC80)[…] at […], […] at […]. Particulars: HEK-293T; read-out: CONCENTRATION / 1000 μM.

Take `Nc1ncnc2c1ncn2[C@@H]1O[C@H](COP(O)(O)=S)[C@@H](O)[C@H]1O` [AMPS, adenosine 5'-O-monophosphorothioate]: the activation at 100 µM at P2Y14 receptor [1] came to 84.4 ± 17.6%. In the case of `O=c1ccn([C@@H]2O[C@H](COP(O)(O)=S)[C@@H](O)[C@H]2O)c(=O)[nH]1` [UMPS, uridine 5'-O-monophosphorothioate], the activation at 1 µM at P2Y14 receptor [2] was determined as 84.5 ± 5.34%.

With `Cc1cn([C@H]2C[C@H](O)[C@@H](COP(O)(O)=S)O2)c(=O)[nH]c1=O` [TMPS, thymidine 5'-O-monophosphorothioate], the activity at 1000 µM on P2Y14 receptor [3] amounted to 17.3 ± 52.9%. For `Nc1ccn([C@@H]2O[C@H](COP(O)(O)=S)[C@@H](O)[C@H]2O)c(=O)n1` [CMPS, cytidine 5'-O-monophosphorothioate], at P2Y14 receptor [1], the activation at 100 µM was 77.5 ± 4.4%.
